Read-outs that look alike come from different tables or passages of the source.
Key:
BV2 microglial cells = assay: LPS-induced TNFα secretion by BV2 microglia cell cultures (ELISA); type: cell-based, murine; settings: for levels of TNFα compared to cultures treated with vehicle and LPS: 24-hours incubation, CBD 10 but not 1 µM, linalool 100 but not 25 µM, kaempferol dose-dependently at 10, 25 and 50 µM, quercetin 10 and 25 but not 5 µM; for IC50: Mus musculus
Procedure: The BV2 murine microglial cell line is used in these studies.
The BV2 cells are cultured at 37° C. in a humidified atmosphere with 5% CO2 in high D-glucose (4.5 g/L) Dulbecco’s modified Eagle’s medium (Sigma, Rehovot, Israel) supplemented with 5% heat-inactivated fetal bovine serum, streptomycin (100 µg/ml), and penicillin (100 units/ml) and sodium pyruvate (1 mM; all from Biological Industries Ltd., Kibbutz Beit Haemek, Israel). 24 hours before experiments with LPS stimulation, the BV2 cells are split into 24 well plates, 2×10^5 cells per well, covered with 1 ml of growth medium and allowed to attach overnight. 24 hr before experiments with α-synuclein, the BV2 cells are split into 96-well plates, 50,000 (5×10^4) cells per well, covered with 200 µl of growth medium and allowed to attach overnight. Cultures of BV2 microglia cells are first treated by an individual cannabinoid, or terpene or flavonoid selected from: Cannabidiol (CBD), Δ-9-tetrahydrocannabinol (THC), Δ-8-tetrahydrocannabinol (THC), cannabigerol (CBG), cannabichromene (CBC), cannabigerolic acid (CBGA), Cannabidiolic acid (CBDA), THC acid (THCA), cannabichromenic Acid (CBCA), Cannabidivarin (CBDV), tetrahydrocannabivarin (THCV), Cannabichromevarin (CBCV), Cannabichromerocin ([…]), Cannabivarin (CBV), Cannabicitran (CBT), Cannabinol (CBN), Cannabicyclol (CBL), Cannabigerorcin (CBGO), Cannabinodiol (CBND), β-caryophyllene, β-elemene, β-myrcene, linalool, α-pinene, β-pinene, eucalyptol, alpha-terpineol, valencene, geraniol (lemonol), bisabolol, nerolidol, ocimene, terpinolene, humulene, α-terpinene, camphene, fenchol, α-phellandrene, Δ3-carene, γ-cardinene, sabinene, limonene, β-amyrin, cycloartenol, cannflavin A, cannflavin B, kaempferol, quercetin, luteolin, apigenin, canniprene, orientin, β-sitosterol, vitexin, isovitexin, and chrysin. Additional cultures of BV2 microglia cells are treated by an individual cannabinoid, with at least one additional cannabinoid, and/or terpene, and/or flavonoid, and/or celecoxib. Additional cultures are exposed to the vehicle of these compounds (cremophor, ethanol and PBS, 1:1:18 (v/v/v)) (FIG. 2A). In some studies, cultures of BV2 microglia cells are treated by a specific whole plant cannabis extract, with or without supplementation with cannabinoid(s), and/or terpene(s) and/or flavonoid(s), and/or celecoxib (FIG. 2B).
For each individual cannabinoid mentioned above, 3-4 concentrations are used, ranging from 0.1 to 10 µM. For ultra-low dose Δ9-THC the concentration used is 0.01 µM. […] For celecoxib, 3-4 concentrations are used, ranging from 0.1 to 10 µM. Two hours following the treatment, the cultures are exposed to one of the following microglia stimulators: LPS (Sigma L2630; Escherichia coli serotype O111:B4) is dissolved in D-PBS (Sigma, D8537) to a pre-stock concentration of 1 mg/ml, aliquoted and stored at -80° C. Stock solution of LPS at 10 ug/ml is prepared using sterile D-PBS, followed by filtering via 0.22 µm filter membrane, aliquoting and storing in -20° C. LPS is applied into the cell medium at a final concentration of 100 ng/ml. Poly I:C (Sigma, P1530) was first dissolved in sterile, molecular grade water to the concentration of 10 mg/ml (following the manufacturer’s instructions). This stock solution was further diluted to the concentration of 1 mg/ml in sterile PBS, and the aliquots stored in -20 °C.

LPS-injected mice = assay: Open field test in the LPS-induced model of depression; type: in vivo; settings: for distance travelled in the open field compared with vehicle-treated groups: Example 9, 4-6 months-old male C57BL/6, i.p. 1 h before LPS 330 µg/kg, mg/kg: CBD 30, CBDA 1 or 5, CBD 30 plus THC 10, CBD 30 plus BCP 50
Description: Animals were housed 2-3/cage, kept in an air-conditioned room (23+°C) and given ad libitum access to food and water. The mice were kept in a reversed light/dark cycle, with lights off from 7 a.m. to 7 p.m. All experiments were approved by the Hebrew University of Jerusalem Ethics Committee on Animal Care and Use. In preparation for the Sucrose Preference Test, mice were habituated 2-3 times to sucrose drinking, by exposing them overnight to two graduated tubes, one containing water and the other containing sucrose solution (1%, w/v). Water and sucrose consumption were measured, and sucrose preference was computed by dividing the amount of sucrose consumed by drinking (ml sucrose) by the total drinking volume (ml of sucrose + water). One day later, the weight of the mice and the food in their cages was weighed for later analysis of food consumption and body weight changes. Groups of mice were injected intraperitoneally (i.p.) with either vehicle (cremophor, ethanol and PBS, 1:1:18 (v/v/v)) or a cannabinoid-based formulation (by itself or with another cannabinoid, or a terpene or a flavonoid). One hour later, each of these groups was injected with LPS (330 µg/kg). All injections were administered at a dose of 10 ml/kg. Four hours following the LPS injection, mice were tested in the Open-Field Test. In this test, the measured locomotor activity reflects not only motor capacity, but particularly the innate motivation for spatial exploration (which increases the distance travelled) and the anxiety level (which reduces the distance travelled, in general, and particularly the distance and time spent in the center of the open field). Each subject was placed near one of the walls of a white 50 X 50 cm^2 arena with 40 cm high walls. The distance travelled (cm), the velocity of the movement (cm/second), the time spent (seconds), distance travelled (cm) in the center area of the arena, as well as the number of entries from the perimeter area into the center of the arena were automatically measured over a 4-minute period, using EthoVision XT video tracking system and software (Noldus, The Netherlands). Twenty-four hours after the LPS injection, mice were tested in the Social Exploration Test. In this test, the subject was placed in an observation cage containing a small metal wire mesh cage with a conspecific mouse inside it. Social exploration, defined as the time of near contact between the nose of the subject and the juvenile in the small cage was recorded for 4 min, using computerized in-house software. Sucrose preference was assessed, as described above, between 8 to 27 hr post LPS injection. Body weight and weight of the food were measured two hours before the LPS injection, and again after 24 hours, and the change in body weight and food consumption were calculated.
This particular study was conducted in several experimental cohorts, and not all compounds and all measures were studied in all cohort. However, each cohort included a vehicle-treated group; therefore, the scores in each behavioral test were converted to % of mean vehicle-treated group in every individual cohort/experiment. Statistical comparisons were computed using SPSS software and consisted of one-way analyses of variance (ANOVA), followed by post-hoc comparisons with the Student-Newman-Keuls method. […]

[1] = Example 4, by itself at 1, 2.5 and 5 µM

SMILES: C=C(C)[C@@H]1CCC(C)=C[C@H]1c1c(O)cc(CCCCC)cc1O [CBD, cannabidiol]
- levels of TNFα compared to cultures treated with vehicle and LPS (BV2 microglial cells): reduced
- release of TNFα (BV2 microglial cells; Example 3, 10 µM (not 1, 2.5 or 5 µM)): significantly inhibited
- release of TNFα vs LPS-activated cultures treated with vehicle (BV2 microglial cells; [1]): no effects
- TNFα secretion from LPS activated microglial cells (BV2 microglial cells; Example 5, CBD 5 µM alone (p<0.05)): decreased the TNFα secretion
- release of TNFα vs LPS-activated cultures treated with vehicle (BV2 microglial cells; Example 5, by themselves, CBD 1 and 2.5 µM, quercetin 1, 2.5 and 5 µM): did not affect
- release of TNFα vs LPS-activated cultures treated with vehicle (BV2 microglial cells; Example 6, by itself, CBD 1, 2.5 and 5 µM, CBDV 1, 2.5, 5 and 10 µM): no concentration of either CBD or CBDV by itself affected release of TNFα
- inhibition of LPS-induced TNFα secretion (BV2 microglial cells; Example 7, by themselves): did not produce significant inhibition
- LPS-induced TNFα release (BV2 microglial cells; Example 25, LPS 100 ng/ml, CannA 5 and 10 µM, CBD and CannB only at 10 µM, CannC 1-10 µM, extract concentration as dominant cannabinoid): significantly inhibited
- IC50 (BV2 microglial cells; BV-2, read-out: CBD IC50, LPS-induced TNFα release, Example 4, addition of 1 µM kaempferol): 2.3 µM
- IC50 (BV2 microglial cells; BV-2, read-out: CBD IC50, LPS-induced TNFα release, Example 4, addition of 2.5 µM kaempferol): 1.3 µM
- IC50 (BV2 microglial cells; BV-2, read-out: CBD IC50, LPS-induced TNFα release, Example 4, addition of 5 µM kaempferol): 0.8 µM
- IC50 (BV2 microglial cells; BV-2, read-out: CBD IC50, LPS-induced TNFα release, Example 5, addition of 1 µM quercetin): 3.8 µM
- IC50 (BV2 microglial cells; BV-2, read-out: CBD IC50, LPS-induced TNFα release, Example 5, addition of 2.5 µM quercetin): 3.2 µM
- IC50 (BV2 microglial cells; BV-2, read-out: CBD IC50, LPS-induced TNFα release, Example 5, addition of 5 µM quercetin): 1.8 µM
- IC50 (BV2 microglial cells; BV-2, read-out: CBD IC50, LPS-induced TNFα release, Example 6, addition of 1 µM CBDV): 3.4 µM
- IC50 (BV2 microglial cells; BV-2, read-out: CBD IC50, LPS-induced TNFα release, Example 6, addition of 2.5 µM CBDV): 4.8 µM
- IC50 (BV2 microglial cells; BV-2, read-out: CBD IC50, LPS-induced TNFα release, Example 6, addition of 5 µM CBDV): 2.7 µM
- IC50 (BV2 microglial cells; BV-2, read-out: CBD IC50, LPS-induced TNFα release, Example 6, addition of 10 µM CBDV): 2.4 µM
- IC50 (BV2 microglial cells; BV-2, read-out: IC50 for TNFα inhibition): 7.2 µM
- IC50 (BV2 microglial cells; BV-2, read-out: IC50 for inhibiting LPS-induced TNFα release): 5.3 µM
- IC50 (BV2 microglial cells; BV-2, read-out: IC50 for inhibiting LPS-induced TNFα release, Example 5 (FIG. 6C), by itself): 6.2 µM
- IC50 (BV2 microglial cells; BV-2, read-out: IC50 for inhibiting LPS-induced TNFα release, Example 6 (FIG. 7C), by itself): 5.4 µM
- distance travelled in the open field compared with vehicle-treated groups (LPS-injected mice): significantly increased distance travelled
- distance travelled in open field vs vehicle-LPS group (LPS-injected mice; Example 18, 7 months-old male mice, 3 daily i.p. injections, LPS 250 µg/kg, CLX 10 and 20 mg/kg or CBD 30 mg/kg by themselves): did not have significant effects
- number of entries into the center area vs vehicle-LPS group (LPS-injected mice; Example 18, CBD 30 mg/kg by itself): no significant effects
- distance moved in the center of the open field vs vehicle-LPS group (LPS-injected mice; Example 18, celecoxib 10, 20, 30 mg/kg or CBD 30 mg/kg by themselves): no significant effects
- distance travelled in the open field test (LPS-injected mice; adult (6-9 months-old) and young adult (2.5-3 months old) female mice, acute CBD, saline or LPS): None of these parameters was influenced by treatment with CBD
- distance traveled in the open field test, LPS-injected groups (LPS-injected mice; adult (6-9 months-old) male mice, acute CBD 30 mg/kg): significantly attenuated the suppressive effect of LPS
- LPS-induced decrease in distance moved in the open field test (LPS-injected mice; young adult (2.5-3 months old) male mice, acute CBD): None of these parameters was influenced by treatment with CBD
- attenuation of LPS effect on distance travelled in the open field test (LPS-injected mice; young-adult male mice, CBD 30 mg/kg i.p. 3 consecutive days, last 1 hr before LPS 330 µg/kg): did not reach statistical significance

SMILES: C=C(C)[C@@H]1CCC(C)=C[C@H]1c1c(O)cc(CCCCC)c(C(=O)O)c1O [CBDA, Cannabidiolic acid]
- effect on lipopolysaccharide-induced TNFα secretion (BV2 microglial cells; THC 0.1, 0.5 and 1 µM, CBDA 0.2, 1 and 2 µM, CBC 0.1, 1 and 2 µM, α-pinene, β-pinene, limonene 25 or 100 µM): no effect
- distance travelled in the open field compared with vehicle-treated groups (LPS-injected mice): significantly increased distance travelled
- open field distance vs Vehicle-treated LPS-injected mice (LPS-injected mice; young-adult female mice, CBDA 5 mg/kg (not 0.5 or 1)): significantly increased

SMILES: O=c1c(O)c(-c2ccc(O)cc2)oc2cc(O)cc(O)c12 [kaempferol]
- levels of TNFα compared to cultures treated with vehicle and LPS (BV2 microglial cells): reduced
- release of TNFα vs LPS-activated cultures treated with vehicle (BV2 microglial cells; [1]): no effects
- IC50 (BV2 microglial cells; BV-2, Example 4 (FIG. 5C), by itself, read-out: IC50 for inhibiting LPS-induced TNFα release): 9.8 µM
- open-field activity compared with the Veh-treated LPS group (LPS-injected mice; adult female mice, kaempferol 60 mg/kg by itself or together with CBD 30 mg/kg): significant elevation in open-field activity
